Where a name gives a salt, the structure may show the parent alone.
Columns and labels:
ATM = ATM (Homo sapiens (Human), UniProt Q13315); assay: ATM in Cell Western Assay (pKAP1 in etoposide-treated MCF-7 cells); assay type: cell-based; settings: MCF-7 cells, etoposide 100 μM, 1 hr, pKAP1 readout
Outline: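 After paraformaldehyde fixation and Triton X-100 permeabilization, immunostained plates were read by infrared scanning (ODYSSEY CLx). Compound was given as 10 doses, 3-fold dilutions from a 1 μM final top concentration.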

DNA-PK = DNA-PK (Homo sapiens (Human), UniProt P78527); assay: DNA-PK Enzyme-Linked Immunosorbent Assay (phosphorylation of GST-p53 (1-101) peptide); assay type: biochemical; settings: ELISA, ATP 20 μM
Outline: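 Inhibition measured by 450 nm absorbance after HRP/TMB detection of phospho-Ser15 on immobilized GST-p53 (1-101). The kinase reaction used 0.1 μg/mL DNA-PK and 20 μM ATP, 1 h at 25 °C. Ten 3-fold compound dilutions, top final concentration 100 nM.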

Chain of ATM (Q13315 whole entry): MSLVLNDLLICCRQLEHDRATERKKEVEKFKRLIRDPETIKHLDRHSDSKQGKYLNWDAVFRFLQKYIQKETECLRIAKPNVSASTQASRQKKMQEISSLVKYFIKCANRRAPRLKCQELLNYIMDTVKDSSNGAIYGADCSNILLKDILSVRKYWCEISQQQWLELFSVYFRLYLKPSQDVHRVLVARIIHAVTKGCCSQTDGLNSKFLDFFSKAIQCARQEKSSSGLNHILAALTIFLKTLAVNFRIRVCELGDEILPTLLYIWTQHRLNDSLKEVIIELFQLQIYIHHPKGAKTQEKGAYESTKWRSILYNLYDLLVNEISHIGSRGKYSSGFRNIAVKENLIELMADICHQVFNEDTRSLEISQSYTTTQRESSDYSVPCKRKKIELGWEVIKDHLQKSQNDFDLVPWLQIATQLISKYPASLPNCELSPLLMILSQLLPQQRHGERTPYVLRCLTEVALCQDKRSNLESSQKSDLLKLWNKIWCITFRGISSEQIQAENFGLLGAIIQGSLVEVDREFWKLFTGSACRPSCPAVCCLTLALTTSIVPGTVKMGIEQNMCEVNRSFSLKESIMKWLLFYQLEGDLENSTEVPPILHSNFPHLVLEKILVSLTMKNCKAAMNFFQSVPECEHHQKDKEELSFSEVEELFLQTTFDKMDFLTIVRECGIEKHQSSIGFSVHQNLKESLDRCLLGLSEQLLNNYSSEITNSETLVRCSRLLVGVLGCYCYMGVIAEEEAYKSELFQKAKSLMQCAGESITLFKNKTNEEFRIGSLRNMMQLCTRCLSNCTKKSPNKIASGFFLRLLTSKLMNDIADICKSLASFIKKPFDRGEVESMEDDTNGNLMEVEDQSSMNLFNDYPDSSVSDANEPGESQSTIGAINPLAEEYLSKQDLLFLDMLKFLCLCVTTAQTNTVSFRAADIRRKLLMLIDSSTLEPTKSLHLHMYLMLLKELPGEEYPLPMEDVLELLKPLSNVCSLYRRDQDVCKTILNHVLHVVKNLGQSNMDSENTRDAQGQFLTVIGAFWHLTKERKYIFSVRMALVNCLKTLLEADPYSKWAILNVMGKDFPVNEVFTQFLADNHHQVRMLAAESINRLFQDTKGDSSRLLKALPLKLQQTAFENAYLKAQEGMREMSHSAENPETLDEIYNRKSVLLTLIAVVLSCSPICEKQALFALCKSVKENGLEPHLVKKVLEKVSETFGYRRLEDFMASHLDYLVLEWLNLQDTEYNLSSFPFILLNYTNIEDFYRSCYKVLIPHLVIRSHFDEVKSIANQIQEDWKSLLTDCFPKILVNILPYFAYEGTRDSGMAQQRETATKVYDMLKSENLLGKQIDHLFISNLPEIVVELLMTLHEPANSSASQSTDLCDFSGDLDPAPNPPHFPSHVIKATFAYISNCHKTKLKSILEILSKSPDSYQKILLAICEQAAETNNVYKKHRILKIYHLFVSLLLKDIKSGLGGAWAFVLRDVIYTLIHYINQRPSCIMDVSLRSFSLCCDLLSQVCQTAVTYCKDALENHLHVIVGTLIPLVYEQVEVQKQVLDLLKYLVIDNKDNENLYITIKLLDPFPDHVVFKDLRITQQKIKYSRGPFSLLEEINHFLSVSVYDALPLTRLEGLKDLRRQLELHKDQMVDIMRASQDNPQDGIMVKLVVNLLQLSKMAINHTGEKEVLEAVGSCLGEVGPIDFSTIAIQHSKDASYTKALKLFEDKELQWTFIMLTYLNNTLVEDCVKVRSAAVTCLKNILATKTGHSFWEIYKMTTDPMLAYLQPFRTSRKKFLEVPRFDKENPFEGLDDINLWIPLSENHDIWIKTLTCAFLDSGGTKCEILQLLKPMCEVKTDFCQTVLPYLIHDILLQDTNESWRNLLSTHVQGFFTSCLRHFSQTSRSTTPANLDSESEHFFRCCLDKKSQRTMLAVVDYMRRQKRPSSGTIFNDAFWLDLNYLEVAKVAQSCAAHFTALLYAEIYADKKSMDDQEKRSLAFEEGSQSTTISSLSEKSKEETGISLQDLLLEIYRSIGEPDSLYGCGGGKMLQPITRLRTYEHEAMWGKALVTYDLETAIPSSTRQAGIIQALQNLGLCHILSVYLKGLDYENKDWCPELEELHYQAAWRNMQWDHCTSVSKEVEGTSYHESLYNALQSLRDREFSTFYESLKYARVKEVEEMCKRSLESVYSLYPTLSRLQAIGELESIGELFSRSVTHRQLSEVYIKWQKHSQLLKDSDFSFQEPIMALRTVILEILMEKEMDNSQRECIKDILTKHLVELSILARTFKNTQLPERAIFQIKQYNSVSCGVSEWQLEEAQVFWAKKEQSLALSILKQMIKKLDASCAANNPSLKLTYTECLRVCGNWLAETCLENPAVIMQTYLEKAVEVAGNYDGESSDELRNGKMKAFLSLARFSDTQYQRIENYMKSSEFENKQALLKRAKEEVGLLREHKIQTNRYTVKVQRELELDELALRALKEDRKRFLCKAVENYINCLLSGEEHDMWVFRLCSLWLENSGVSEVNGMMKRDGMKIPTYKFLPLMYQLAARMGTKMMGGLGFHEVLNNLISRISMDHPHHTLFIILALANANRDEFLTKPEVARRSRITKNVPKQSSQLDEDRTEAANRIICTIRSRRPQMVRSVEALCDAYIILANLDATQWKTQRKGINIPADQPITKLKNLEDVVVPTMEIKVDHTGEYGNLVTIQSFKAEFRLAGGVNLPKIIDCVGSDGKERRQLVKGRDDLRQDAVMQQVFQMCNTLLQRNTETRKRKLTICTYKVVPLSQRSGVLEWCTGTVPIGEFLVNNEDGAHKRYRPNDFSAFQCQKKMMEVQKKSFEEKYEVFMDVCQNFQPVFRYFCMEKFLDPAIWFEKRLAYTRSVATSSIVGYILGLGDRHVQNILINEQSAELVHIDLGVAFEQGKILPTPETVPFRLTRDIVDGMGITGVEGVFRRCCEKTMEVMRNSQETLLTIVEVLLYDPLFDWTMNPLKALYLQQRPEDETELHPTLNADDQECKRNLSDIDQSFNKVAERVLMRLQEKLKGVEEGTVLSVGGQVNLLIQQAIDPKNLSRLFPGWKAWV

IC50 (ATM) | IC50 (DNA-PK) | SMILES
1 to 100 nM | 0.5 to 1 nM | CN1C(=O)C2(CCC2)c2c1cnc1ccc(-c3cnc(OCCCN4CCCCC4)c(NS(=O)(=O)N(C)C)c3)cc21 [Example 180, hydrochloride]
1 to 100 nM | 1 to 100 nM | COC1CCN(S(=O)(=O)Nc2cc(-c3ccc4ncc5c(c4c3)C3(CCC3)C(=O)N5C)cnc2OCCCN(C)C)CC1 [Example 187, N-(2-(3-(Dimethylamino)propoxy)-5-(3′-methyl-2′-oxo-2′,3′-dihydrospiro[cyclobulane-1,1′-pyrrolo[2,3-c]quinolin]-8′-yl)pyridin-3-yl)-4-methoxypiperidine-1-sulfonamide]
1 to 100 nM | < 0.5 nM | CN(C)CCCOc1ncc(-c2ccc3ncc4c(c3c2)C2(CCC2)C(=O)N4C)cc1NS(=O)(=O)c1ccns1 [Example 188, N-(2-(3-(Dimethylamino)propoxy)-5-(3′-methyl-2′-oxo-2′,3′-dihydrospiro [cyclobutane-1,1′-pyrrolo [2,3-c]quinolin]-8′-yl)pyridin-3-yl) isothiazole-5-sulfonamide hydrochloride]
1 to 100 nM | 0.5 to 1 nM | CN1C(=O)C2(CCC2)c2c1cnc1ccc(-c3cnc(OCCCN4CCCCC4)c(NS(=O)(=O)c4cscn4)c3)cc21 [Example 193, N-(5-(3′-Methyl-2′-oxo-2′,3′-dihydrospiro[cyclobutane-1,1′-pyrrolo[2,3-c]quinolin]-8′-yl)-2-(3-(piperidin-1-yl)propoxy)pyridin-3-yl)thiazole-4-sulfonamide hydrochloride]
1 to 100 nM | 1 to 100 nM | CN1C(=O)C2(CCC2)c2c1cnc1ccc(-c3cnc(OCCCN4CCCCC4)c(NS(=O)(=O)c4cc(F)cc(Cl)c4)c3)cc21 [Example 196, 3-Chloro-5-fluoro-N-(5-(3′-methyl-2′-oxo-2′,3′-dihydrospiro[cyclobulane-1,1′-pyrrolo[2,3-c]quinolin]-8′-yl)-2-(3-(piperidin-1-yl)propoxy)pyridin-3-yl)benzenesulfonamide hydrochloride]
1 to 100 nM | 0.5 to 1 nM | CN1C(=O)C2(CCC2)c2c1cnc1ccc(-c3cnc(OCCCN4CCCCC4)c(NS(=O)(=O)C4CC4)c3)cc21 [Example 197, N-(5-(3-Methyl-2′-oxo-2′,3′-dihydrospiro[cyclobulane-1,1′-pyrrolo[2,3-c]quinolin]-8′-yl)-2-(3-(piperidin-1-yl)propoxy)pyridin-3-yl)cyclopropanesulfonamide hydrochloride]
1 to 100 nM | < 0.5 nM | Cc1ccc(S(=O)(=O)Nc2cc(-c3ccc4ncc5c(c4c3)C3(CCC3)C(=O)N5C)cnc2N2CCC(N3CCCCC3)CC2)cn1 [Example 198, N-(2-([1,4′-Bipiperidin]-1′-yl)-5-(3′-methyl-2′-oxo-2′,3′-dihydrospiro[cyclobutane-1,1′-pyrrolo[2,3-c]quinolin]-8′-yl)pyridin-3-yl)-6-methylpyridine-3-sulfonamide hydrochloride]
0.5 to 1 nM | < 0.5 nM | CN1C(=O)C2(CCC2)c2c1cnc1ccc(-c3cnc(OCCCN4CCCCC4)c(NS(=O)(=O)N4CCNCC4)c3)cc21 [Example 202, N-(5-(3′-Methyl-2′-oxo-2′,3′-dihydrospiro[cyclobutane-1,1′-pyrrolo[2,3-c]quinolin]-8′-yl)-2-(3-(piperidin-1-yl)propoxy)pyridin-3-yl)piperazine-1-sulfonamide]
1 to 100 nM | 0.5 to 1 nM | CN1C(=O)C2(CCC2)c2c1cnc1ccc(-c3cnc(N4CCC(N5CCCCC5)CC4)c(NS(=O)(=O)c4ccccc4F)c3)cc21 [Example 203]

The remaining lines, values behind:

SMILES | IC50 (ATM) | IC50 (DNA-PK)
Cc1ccc(S(=O)(=O)Nc2cc(-c3ccc4ncc5c(c4c3)C3(CCC3)C(=O)N5C)cnc2N2CCC(N(C)C)CC2)cc1 [Example 178, N-(2-(4-(Dimethylamino)piperidin-1-yl)-5-(3′-methyl-2′-oxo-2′,3′-dihydrospiro[cyclobutane-1,1′-pyrrolo[2,3-c]quinolin]-8′-yl)pyridin-3-yl)-4-methylbenzenesulfonamide 2,2,2-trifluoroacetate] | 1 to 100 nM | < 0.5 nM
COCCN(CCOC)S(=O)(=O)Nc1cc(-c2ccc3ncc4c(c3c2)C2(CCC2)C(=O)N4C)cnc1OCCCN(C)C [Example 181, 8′-(5-{[Bis(2-methoxyethyl)sulfamoyl]amino}-6-[3-(dimethylamino)propoxy]pyridine-3-yl)-3′-methyl-2′,3′-dihydrospiro [cyclobutane-1,1′-pyrrolo[2,3-c]quinoline]-2′-one] | 1 to 100 nM | 1 to 100 nM
CCN(CC)S(=O)(=O)Nc1cc(-c2ccc3ncc4c(c3c2)C2(CCC2)C(=O)N4C)cnc1OCCCN(C)C [Example 183, 8′-{5-[(Diethylsulfanioyl)amino]-6-[3-(dimethylamino)propoxy]pyridine-3-yl}-3′-methyl-2′,3′-dihydrospiro [cyclobutane-1,1′-pyrrolo[2,3-c]quinoline]-2′-one] | 1 to 100 nM | 1 to 100 nM
CC1CN(S(=O)(=O)Nc2cc(-c3ccc4ncc5c(c4c3)C3(CCC3)C(=O)N5C)cnc2OCCCN(C)C)CC(C)O1 (stereo not shown) [Example 184, N-(2-(3-(Dimethylamino)propoxy)-5-(3′-methyl-2′-oxo-2′,3′-dihydrospiro[cyclobutane-1,1′-pyrrolo[2,3-c]quinolin]-8′-yl)pyridin-3-yl)-2,6-dimethylmorpholine-4-sulfonamide] | 1 to 100 nM | 1 to 100 nM
Cc1ccc(S(=O)(=O)Nc2cc(-c3ccc4ncc5c(c4c3)C3(CCC3)C(=O)N5C)cnc2N2CCC(N(C)C)CC2)cn1 [Example 185, N-(2-(4-(Dimethylamino)piperidin-1-yl)-5-(3′-methyl-2′-oxo-2′,3′-dihydrospiro[cyclobutane-1,1′-pyrrolo[2,3-c]quinolin]-8′-yl)pyridin-3-yl)-6-methylpyridine-3-sulfonamide hydrochloride] | 1 to 100 nM | 0.5 to 1 nM
CN(C)CCCOc1ncc(-c2ccc3ncc4c(c3c2)C2(CCC2)C(=O)N4C)cc1NS(=O)(=O)c1ccc(C(F)(F)F)cc1 [Example 186, N-(2-(3-(Dimethylamino)propoxy)-5-(3′-methyl-2′-oxo-2′,3′-dihydrospiro[cyclobutane-1,1′-pyrrolo[2,3-c]quinolin]-8′-yl)pyridin-3-yl)-4-(trifluoromethyl)benzenesulfonamide hydrochloride] | 1 to 100 nM | 1 to 100 nM
CN(C)CCCOc1ncc(-c2ccc3ncc4c(c3c2)C2(CCC2)C(=O)N4C)cc1NS(C)(=O)=O [Example 189, N-(2-(3-(Dimethylamino)propoxy)-5-(3′-methyl-2′-oxo-2′,3′-dihydrospiro [cyclobulane-1,1′-pyrrolo[2,3-c]quinolin]-8′-yl)pyridin-3-yl) methanesulfonamide] | 1 to 100 nM | < 0.5 nM
CN(C)CCCOc1ncc(-c2ccc3ncc4c(c3c2)C2(CCC2)C(=O)N4C)cc1NS(=O)(=O)C1CC1 [Example 190, N-(2-(3-(Dimethylamino)propoxy)-5-(3′-methyl-2′-oxo-2′,3′-dihydrospiro[cyclobulane-1,1′-pyrrolo[2,3-c]quinolin]-8′-yl)pyridin-3-yl)cyclopropanesulfonamide] | 1 to 100 nM | 1 to 100 nM
Cc1ccc(S(=O)(=O)Nc2cc(-c3ccc4ncc5c(c4c3)C3(CCC3)C(=O)N5C)cnc2N2CCC(N3CCCCC3)CC2)cc1 [Example 192, N-(2-(1,4-Bipiperidin]-1′-yl)-5-(3′-methyl-2′-oxo-2′,3′-dihydrospiro[cyclobulane-1,1′-pyrrolo[2,3-c]quinolin]-8′-yl)pyridin-3-yl)-4-methylbenzenesulfonamide hydrochloride] | 1 to 100 nM | 1 to 100 nM
Cc1cc(S(=O)(=O)Nc2cc(-c3ccc4ncc5c(c4c3)C3(CCC3)C(=O)N5C)cnc2OCCCN2CCCCC2)sn1 [Example 194, 3-Methyl-N-(5-(3′-methyl-2′-oxo-2′,3′-dihydrospiro[cyclobutane-1,1′-pyrrolo[2,3-c]quinolin]-8′-yl)-2-(3-(piperidin-1-yl)propoxy)pyridin-3-yl)isothiazole-5-sulfonamide hydrochloride] | 1 to 100 nM | < 0.5 nM
CN1C(=O)C2(CCC2)c2c1cnc1ccc(-c3cnc(OCCCN4CCCCC4)c(NS(=O)(=O)c4ccccc4F)c3)cc21 [Example 195, 2-Fluoro-N-(5-(3′-methyl-2′-oxo-2′,3′-dihydrospiro[cyclobutane-1,1′-pyrrolo[2,3-c]quinolin]-8′-yl)-2-(3-(piperidin-1-yl)propoxy)pyridin-3-yl) benzenesulfonamide hydrochloride] | 1 to 100 nM | 0.5 to 1 nM
CN1C(=O)C2(CCC2)c2c1cnc1ccc(-c3cnc(OCCCN4CCCCC4)c(NS(=O)(=O)c4cncs4)c3)cc21 [Example 199, N-(5-(3′-Methyl-2′-oxo-2′,3′-dihydrospiro[cyclobutane-1,1′-pyrrolo[2,3-c]quinolin]-8′-yl)-2-(3-(piperidin-1-yl)propoxy)pyridin-3-yl)thiazole-5-sulfonamide hydrochloride] | 1 to 100 nM | < 0.5 nM
CN1CCN(S(=O)(=O)Nc2cc(-c3ccc4ncc5c(c4c3)C3(CCC3)C(=O)N5C)cnc2OCCCN2CCCCC2)CC1 [Example 200] | 0.5 to 1 nM | < 0.5 nM
Cc1ccc(S(=O)(=O)Nc2cc(-c3ccc4ncc5c(c4c3)C3(CCC3)C(=O)N5C)cnc2N2CCN(C)CC2)cn1 [Example 201, 6-Methyl-N-(5-(3′-methyl-2′-oxo-2′,3′-dihydrospiro[cyclobutane-1,1′-pyrrolo[2,3-c]quinolin]-8′-yl)-2-(4-methylpiperazin-1-yl)pyridin-3-yl)pyridine-3-sulfonamide] | 1 to 100 nM | < 0.5 nM

— patent publication US12187742B2 (XRAD Therapeutics, Inc., priority 2018, dated 2025)
